The values that follow come from US8318749B2, “Quinazoline derivatives as NK3 receptor antagonists” (Hoffmann-La Roche Inc., priority 2008, dated 2012).

By Ki is commonly meant a measure of affinity in units of concentration, obtained from inhibition or displacement.

Experiment [1] has as its target T1, recombinant human NK3 receptor (Homo sapiens, UniProt P29371).
T1 construct: expressed in transfected cells; host or cells: HEK293 cells (transient expression), membrane preparation
T1 sequence (P29371 1-465): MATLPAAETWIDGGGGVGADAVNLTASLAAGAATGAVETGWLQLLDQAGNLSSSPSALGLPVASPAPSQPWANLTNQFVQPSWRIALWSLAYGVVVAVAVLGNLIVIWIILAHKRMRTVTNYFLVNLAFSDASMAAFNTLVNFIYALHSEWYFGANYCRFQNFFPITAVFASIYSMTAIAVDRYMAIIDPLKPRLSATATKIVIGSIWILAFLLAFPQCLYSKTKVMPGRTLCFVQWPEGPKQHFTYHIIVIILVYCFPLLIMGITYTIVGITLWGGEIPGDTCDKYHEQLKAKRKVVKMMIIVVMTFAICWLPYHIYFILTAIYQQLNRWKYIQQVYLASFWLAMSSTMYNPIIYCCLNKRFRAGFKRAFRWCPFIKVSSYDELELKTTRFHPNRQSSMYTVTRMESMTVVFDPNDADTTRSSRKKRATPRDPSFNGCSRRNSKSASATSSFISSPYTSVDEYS
In words: [3H]SR142801 competition binding assay. The conditions noted are these: membrane from HEK293 cells transiently expressing recombinant human NK3 receptor; radioligand [3H]SR142801; 75 min at RT. As to the method:
[^3H]SR142801 Competition Binding Assay
hNK3 receptor binding experiment were performed using [^3H]SR142801 (Catalog No. TRK1035, specific activity: 74.0 Ci/mmol, Amersham, GE Healthcare UK limited, Buckinghamshire, UK) and membrane isolated from HEK293 cells transiently expressing recombinant human NK3 receptor. After thawing, the membrane homogenates were centrifuged at 48,000×g for 10 min at 4° C., the pellets were resuspended in the 50 mM Tris-HCl, 4 mM MnCl2, 1 μM phosphoramidon, 0.1% BSA binding buffer at pH 7.4 to a final assay concentration of 5 μg protein/well. […] At the end of the incubation, membranes were filtered onto unitfilter (96-well white microplate with bonded GF/C filter preincubated 1 h in 0.3% PEI+0.3% BSA, Packard BioScience, Meriden, Conn.) with a Filtermate 196 harvester (Packard BioScience) and washed 4 times with ice-cold 50 mM Tris-HCl, pH 7.4 buffer. Nonspecific binding was measured in the presence of 10 μM SB222200 for both radioligands. The radioactivity on the filter was counted (5 min) on a Packard Top-count microplate scintillation counter with quenching correction after addition of 45 μl of microscint 40 (Canberra Packard S.A., Zürich, Switzerland) and shaking for 1 h. Inhibition curves were fitted according to the Hill equation: y=100/(1+(x/IC50)^nH), where nH=slope factor using Excel-fit 4 software (Microsoft). IC50 values were derived from the inhibition curve and the affinity constant (Ki) values were calculated using the Cheng-Prussoff equation Ki=IC50/(1+[L]/KD) where [L] is the concentration of radioligand and KD is its dissociation constant at the receptor, derived from the saturation isotherm. All experiments were performed in duplicate and the mean±standard error (SEM) of the individual Ki values was calculated.

For experiment [2] the following is noted: phase II trial, cited from earlier work.

Take `O=C(NCc1ccccc1)C1(Cc2ccccc2)CCN(c2nc(O)c3ccc(OC(F)(F)F)cc3n2)CC1` [Example 99, 4-Benzyl-1-(4-hydroxy-7-trifluoromethoxy-quinazolin-2-yl)-piperidine-4-carboxylic acid benzylamide]: the Ki in experiment [1] stood at 4.9 nM.

As for `CC(=O)N(C)C1(c2ccccc2)CCN(CCC[C@]2(c3ccc(Cl)c(Cl)c3)CCCN(C(=O)c3ccccc3)C2)CC1` [SR 142,801, Osanetant], the “activity on positive symptoms of schizophrenia” value in experiment [2] (altered behaviour, delusion, hallucinations, extreme emotions, excited motor activity, incoherent speech) is reported as “active”. Moreover, the “activity in the treatment of negative symptoms” value in experiment [2] (depression, anhedonia, social isolation or memory and attention deficits) was “inactive”.
